In ChEMBL document CHEMBL1157124, “Synthesis and anticancer evaluation of alpha-lipoic acid derivatives” (Bioorg Med Chem Lett, 2010):

Columns and labels:
Type in all cases: functional
[1] = system: Bel-7402; assay: Cytotoxicity against human Bel7402 cells assessed as growth inhibition at 1 ug/ml after 24 hrs by MTT assay; details: Bel-7402, 24 h, read-out: GI
[2] = system: NCI-H460; assay: Cytotoxicity against human NCI-H460 cells assessed as growth inhibition at 1 ug/ml after 24 hrs by MTT assay; details: NCI-H460, 24 h, read-out: GI
[3] = system: KB; assay: Cytotoxicity against human KB cells assessed as growth inhibition at 10 ug/ml after 24 hrs by MTT assay; details: read-out: GI
[4] = system: KB; assay: Cytotoxicity against human KB cells assessed as growth inhibition at 1 ug/ml after 24 hrs by MTT assay; details: read-out: GI
[5] = system: Bel-7402; assay: Cytotoxicity against human Bel7402 cells assessed as growth inhibition at 10 ug/ml after 24 hrs by MTT assay; details: Bel-7402, 24 h, read-out: GI
[6] = system: KB; assay: Cytotoxicity against human KB cells assessed as growth inhibition at 0.1 ug/ml after 24 hrs by MTT assay; details: read-out: GI
[7] = system: NCI-H460; assay: Cytotoxicity against human NCI-H460 cells assessed as growth inhibition at 0.1 ug/ml after 24 hrs by MTT assay; details: NCI-H460, 24 h, read-out: GI
[8] = system: Bel-7402; assay: Cytotoxicity against human Bel7402 cells assessed as growth inhibition at 100 ug/ml after 24 hrs by MTT assay; details: Bel-7402, 24 h, read-out: GI
[9] = system: Bel-7402; assay: Cytotoxicity against human Bel7402 cells assessed as growth inhibition at 0.1 ug/ml after 24 hrs by MTT assay; details: Bel-7402, 24 h, read-out: GI
[10] = system: KB; assay: Cytotoxicity against human KB cells assessed as growth inhibition at 100 ug/ml after 24 hrs by MTT assay; details: read-out: GI
[11] = Cytotoxicity against human HO8910 cells assessed as growth inhibition at 10 ug/ml after 24 hrs by MTT assay; details: HO-8910, 24 h, read-out: GI
[12] = system: NCI-H460; assay: Cytotoxicity against human NCI-H460 cells assessed as growth inhibition at 100 ug/ml after 24 hrs by MTT assay; details: NCI-H460, 24 h, read-out: GI
[13] = Cytotoxicity against human HO8910 cells assessed as growth inhibition at 100 ug/ml after 24 hrs by MTT assay; details: HO-8910, 24 h, read-out: GI
[14] = system: NCI-H460; assay: Cytotoxicity against human NCI-H460 cells assessed as growth inhibition at 10 ug/ml after 24 hrs by MTT assay; details: NCI-H460, 24 h, read-out: GI
[15] = Cytotoxicity against human HO8910 cells assessed as growth inhibition at 1 ug/ml after 24 hrs by MTT assay; details: HO-8910, 24 h, read-out: GI
[16] = Cytotoxicity against human HO8910 cells assessed as growth inhibition at 0.1 ug/ml after 24 hrs by MTT assay; details: HO-8910, 24 h, read-out: GI

Row | SMILES | inhibition of growth at 1 µg/mL [1] | inhibition of growth at 1 µg/mL [2] | inhibition of growth at 10 µg/mL [3] | inhibition of growth at 1 µg/mL [4] | inhibition of growth at 10 µg/mL [5] | inhibition of growth at 0.1 µg/mL [6] | inhibition of growth at 0.1 µg/mL [7] | inhibition of growth at 100 µg/mL [8] | inhibition of growth at 0.1 µg/mL [9] | inhibition of growth at 100 µg/mL [10] | inhibition of growth at 10 µg/mL [11] | inhibition of growth at 100 µg/mL [12] | inhibition of growth at 100 µg/mL [13] | inhibition of growth at 10 µg/mL [14] | inhibition of growth at 1 µg/mL [15] | inhibition of growth at 0.1 µg/mL [16]
1 | O=C(CCCCC1CCSS1)NO (stereo not drawn) | 7.39% | 0.64% | 0.89% | 2.57% | 11.8% | 7.92% | 3.9% | 12.5% | 10.4% | 12.4% | – | – | – | – | – | –
2 | COc1ccc(NC(=O)CCCCC(S)CCS)cc1 (stereo not drawn) | 3.96% | – | 8.93% | 2.49% | 10.4% | – | 5.69% | 22.5% | 5.35% | 22.2% | 4.14% | 23.5% | 12.6% | 1.43% | 1.79% | –
3 | CC(=O)SCCC(CCCCC(=O)Nc1ccccc1Cl)SC(C)=O (stereo not drawn) | 5.01% | 13.2% | 6.55% | 8.21% | 3.09% | 7.05% | 16.6% | – | 6.61% | 6.93% | – | 15.2% | – | 11.4% | – | 2.48%
4 | O=C(CCCCC(S)CCS)Nc1cccc(Cl)c1 (stereo not drawn) | 1.14% | 7.2% | – | – | 3.22% | – | 9.78% | 16.1% | 3.09% | 8.04% | – | 24.8% | – | – | – | –
5 | O=C(CCCCC(S)CCS)Nc1ccccc1Cl (stereo not drawn) | 3.08% | 8.19% | – | – | – | – | 6.36% | – | 5.11% | – | – | 12.1% | – | 18.2% | 7.72% | 6.11%
6 | O=C(CCCCC1CCSS1)Nc1ccc(Br)cn1 (stereo not drawn) | 13.1% | 13.1% | 35.1% | 4.33% | 24.5% | – | 9% | 45.5% | – | 42.3% | 29.6% | 52% | 32.1% | 38% | 4.27% | –
7 | O=C(CCCCC(S)CCS)Nc1cccc2ccccc12 (stereo not drawn) | 0.69% | – | – | – | – | – | – | – | – | – | – | 2.18% | – | – | – | 0.76%
8 | O=C(CCCCC(CCSC(=O)c1ccccc1)SC(=O)c1ccccc1)Nc1ccc(Cl)cc1 (stereo not drawn) | 9.62% | 9.8% | 10.6% | 11.7% | 4.87% | 16.9% | 9.36% | – | 9.2% | 5.78% | – | – | – | 12.6% | 1.29% | 3.68%
9 | CC(=O)SCCC(CCCCC(=O)Nc1cccc(Cl)c1)SC(C)=O (stereo not drawn) | 0.56% | 0.31% | – | 0.04% | – | 5.72% | – | 20.8% | 3.72% | 48.8% | – | 42.8% | 38.1% | 2.09% | – | 0.27%
10 | O=C(CCCCC(S)CCS)Nc1ccccn1 (stereo not drawn) | – | 2.31% | 0.28% | – | – | – | 5.01% | 3.62% | – | 18.5% | – | 11.7% | 14.2% | – | – | –
11 | O=C(CCCCC(S)CCS)Nc1ccc(Cl)cc1 (stereo not drawn) | 0.27% | 6.76% | 18.2% | 13.3% | 1.16% | 9.11% | – | 25.5% | 1.06% | 44.1% | – | 40.9% | 21.3% | 21.9% | 2.81% | 1.04%
12 | O=C(CCCCC1CCSS1)Nc1ccccn1 (stereo not drawn) | – | 0.81% | – | – | 5.77% | – | 2.61% | 37.6% | 0.89% | 25.1% | – | 39.3% | 51.9% | – | – | 1.14%
13 | CC(=O)SCCC(CCCCC(=O)O)SC(C)=O (stereo not drawn) | 12.8% | 9.89% | 8.88% | 12.4% | 9.22% | 7.24% | 9.96% | 8.35% | 10.3% | 8.03% | 1.61% | 11% | – | 6.04% | – | –
14 | O=C(CCCCC(S)CCS)NO (stereo not drawn) | 9.12% | 1.17% | 41.5% | 10.6% | 28.2% | 7.62% | 5.7% | 47.5% | 5.96% | 58% | 26.2% | 43.7% | 49.3% | 17.7% | – | –
15 | O=C(CCCCC(CCSC(=O)c1ccccc1)SC(=O)c1ccccc1)Nc1cccc(Cl)c1 (stereo not drawn) | – | 9.48% | 16.6% | 12.7% | – | 10.7% | 15.6% | – | 1.7% | – | – | – | – | 9.12% | 3.38% | 9.02%
16 | O=C(CCCCC(S)CCS)Nc1ccc(Br)cn1 (stereo not drawn) | 4.71% | 10.7% | 34.1% | 2.51% | 23.2% | – | 6.4% | 41.1% | – | 59.2% | 29.4% | 55.9% | 56.8% | 39.2% | 2.51% | –
17 | Cc1cccc(NC(=O)CCCCC(S)CCS)c1 (stereo not drawn) | 11.1% | 9.43% | 7.23% | 3.31% | 14.1% | 5.75% | 9.34% | 7.08% | 10.1% | 17.5% | – | 23.1% | – | 7.67% | 2.76% | 4.92%
18 | O=C(CCCCC(CCSC(=O)c1ccccc1)SC(=O)c1ccccc1)Nc1ccccc1 (stereo not drawn) | – | 5.93% | 2.67% | – | – | 1.52% | 0.6% | – | – | – | – | – | – | 11.4% | 3.79% | 3.12%
19 | O=C(CCCCC1CCSS1)Nc1cccc2ccccc12 (stereo not drawn) | 9.55% | 4.15% | – | 8.37% | 6.27% | – | 2.36% | 7.22% | 3.4% | – | – | – | – | – | 6.95% | 0.34%
20 | O=C(CCCCC(S)CCS)Nc1ccc([N+](=O)[O-])cc1 (stereo not drawn) | 1.73% | 4.64% | 13.7% | 0.93% | 14.4% | – | 5.69% | 33.4% | 1.88% | 41.1% | 8.96% | 39.1% | 51.2% | 13.4% | 0.76% | –
